In ChEMBL document CHEMBL6087454, “Identification of Novel Organo-Se BTSA-Based Derivatives as Potent, Reversible, and Selective PPARγ Covalent Modulators for Antidiabetic Drug Discovery” (J Med Chem, 2025) one finds Activity and inhibition data, which are given here for 1 molecule.

The target of series [1] is T1, Peroxisome proliferator-activated receptor alpha (Homo sapiens) (UniProt Q07869).
T1 sequence (whole entry): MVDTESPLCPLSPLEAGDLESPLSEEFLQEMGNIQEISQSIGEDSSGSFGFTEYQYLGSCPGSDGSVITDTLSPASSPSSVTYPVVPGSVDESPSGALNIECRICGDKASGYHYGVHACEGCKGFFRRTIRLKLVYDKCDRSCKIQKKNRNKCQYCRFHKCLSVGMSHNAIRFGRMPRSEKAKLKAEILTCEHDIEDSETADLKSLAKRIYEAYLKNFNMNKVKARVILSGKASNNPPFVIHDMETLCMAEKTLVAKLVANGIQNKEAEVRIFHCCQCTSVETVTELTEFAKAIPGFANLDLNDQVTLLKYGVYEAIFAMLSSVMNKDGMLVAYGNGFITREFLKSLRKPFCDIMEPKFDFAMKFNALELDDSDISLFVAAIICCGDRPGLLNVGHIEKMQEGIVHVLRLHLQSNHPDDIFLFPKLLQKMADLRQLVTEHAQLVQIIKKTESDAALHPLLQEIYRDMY
Description: Binding affinity to PPAR-alpha (unknown origin) at 0.5 uM in presence of fluormone pan-PPAR green tracer by TR-FRET assay. For orientation: In TR-FRET formats the signal depends on donor and acceptor labels being close together.

Series [2] can be described thus: Toxicity in male db/db mouse model assessed as increase in brown adipose tissue weight at 2.5 to 10 mg/kg/day, ip administered for 4 weeks. The format is organism-based. As to conditions: in vivo, 672 h, dose 2.5-10 mg/kg/day.
Series [3] deals with Mus musculus. Description: Antidiabetic activity in male db/db mouse model assessed as downregulation of SOCS3 gene expression in white adipose tissue at 2.5 to 10 mg/kg/day, ip administered for 4 weeks by RT-qPCR analysis. The class given is functional, organism-based. As to conditions: dose 2.5-10 mg/kg/day. (In qPCR the cycle at which signal appears reflects the starting amount.)

For series [4], the system named is Mus musculus. Description: Antidiabetic activity in male db/db mouse model assessed as downregulation of aP2 gene expression in white adipose tissue at 2.5 to 10 mg/kg/day, ip administered for 4 weeks by RT-qPCR analysis. The class given is functional, organism-based. As to conditions: dose 2.5-10 mg/kg/day.
The test system of series [5] is Mus musculus. Description: Antidiabetic activity in male db/db mouse model assessed as downregulation of CD36 gene expression in white adipose tissue at 2.5 to 10 mg/kg/day, ip administered for 4 weeks by RT-qPCR analysis. The format is functional, organism-based. As to conditions: dose 2.5-10 mg/kg/day.
The subject of series [6] is Mus musculus. Description: Downregulation of PPAR-gamma protein expression in male db/db mouse white adipose tissue at 2.5 to 10 mg/kg/day, ip administered for 4 weeks by Western blotting analysis. As to conditions: dose 2.5-10 mg/kg/day. The format is functional, organism-based. (A western blot detects proteins with antibodies after separation by electrophoresis.)
The test system of a further series is 3T3-L1. Description: Inhibition of adipogenesis in mouse 3T3-L1 cells assessed as downregulation of C/EBPalpha gene expression at 1 uM measured after 48 hrs by RT-qPCR analysis. The class given is functional, cell-based.
Series [7] is described as follows: Toxicity in male db/db mouse model assessed as increase in white adipocytes size at 2.5 to 10 mg/kg/day, ip administered for 4 weeks by H and E staining based analysis. As to conditions: in vivo, 672 h, dose 2.5-10 mg/kg/day. The class given is organism-based.
Series [8] deals with Mus musculus. Description: Antidiabetic activity in male db/db mouse model assessed as increase in Glut4 protein abundance in white adipose tissue at 2.5 to 10 mg/kg/day, ip administered for 4 weeks by Western blotting analysis. As to conditions: dose 2.5-10 mg/kg/day. The class given is functional, organism-based.
For series [9], the system named is Mus musculus. Description: Antidiabetic activity in male db/db mouse model assessed as downregulation of C/EBPalpha gene expression in liver at 2.5 to 10 mg/kg/day, ip administered for 4 weeks by RT-qPCR analysis. The format is functional, organism-based. The settings on record: dose 2.5-10 mg/kg/day.
Series [10] concerns Mus musculus. Description: Antidiabetic activity in male db/db mouse model assessed as upregulation of adiponectin gene expression in liver at 2.5 to 10 mg/kg/day, ip administered for 4 weeks by RT-qPCR analysis. As to conditions: dose 2.5-10 mg/kg/day. The format is functional, organism-based.
The subject of series [11] is Mus musculus. Description: Antidiabetic activity in male db/db mouse model assessed as reduction in fasting blood glucose level administered intraperitoneally for 4 weeks. As to conditions: dose 2.5-10 mg/kg/day, route ip. The format is functional, organism-based.
The target in series [12] is T2, Peroxisome proliferator-activated receptor gamma (Homo sapiens) (UniProt P37231).
T2 sequence (whole entry): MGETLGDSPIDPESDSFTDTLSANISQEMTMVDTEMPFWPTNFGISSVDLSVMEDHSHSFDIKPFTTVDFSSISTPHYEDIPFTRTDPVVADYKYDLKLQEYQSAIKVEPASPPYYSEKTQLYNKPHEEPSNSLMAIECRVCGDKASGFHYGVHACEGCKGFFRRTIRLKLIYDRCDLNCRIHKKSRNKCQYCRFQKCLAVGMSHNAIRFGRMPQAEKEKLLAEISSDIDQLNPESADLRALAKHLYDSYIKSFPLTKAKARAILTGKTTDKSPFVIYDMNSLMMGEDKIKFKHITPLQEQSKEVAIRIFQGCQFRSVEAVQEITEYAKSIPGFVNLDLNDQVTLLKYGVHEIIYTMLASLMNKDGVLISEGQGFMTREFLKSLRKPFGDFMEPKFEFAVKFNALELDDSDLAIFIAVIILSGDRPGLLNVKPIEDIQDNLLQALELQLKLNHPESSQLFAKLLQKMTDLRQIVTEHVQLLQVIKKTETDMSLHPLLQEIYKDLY
Description: Covalent binding affinity to recombinant PPAR-gamma ligand binding domain (unknown origin) incubated for 30 mins by high-performance liquid chromatography Fourier transform mass spectrometric analysis. As to conditions: filed as partial agonist.

Series [13] can be described thus: Toxicity in male db/db mouse model assessed as effect on kidney morphology at 2.5 to 10 mg/kg/day, ip administered for 4 weeks. The settings on record: in vivo, 672 h, dose 2.5-10 mg/kg/day. The class given is organism-based.
The nature of series [14]: Toxicity in male db/db mouse model assessed as effect on heart morphology at 2.5 to 10 mg/kg/day, ip administered for 4 weeks. The class given is organism-based. As to conditions: in vivo, 672 h, dose 2.5-10 mg/kg/day.
Series [15] deals with Mus musculus. The experiment in a line: Antidiabetic activity in male db/db mouse model assessed as downregulation of PTP1B gene expression in liver at 2.5 to 10 mg/kg/day, ip administered for 4 weeks by RT-qPCR analysis. The format is functional, organism-based. The settings on record: dose 2.5-10 mg/kg/day.
The target in series [16] is T3, Peroxisome proliferator-activated receptor delta (Homo sapiens) (UniProt Q03181).
T3 sequence (whole entry): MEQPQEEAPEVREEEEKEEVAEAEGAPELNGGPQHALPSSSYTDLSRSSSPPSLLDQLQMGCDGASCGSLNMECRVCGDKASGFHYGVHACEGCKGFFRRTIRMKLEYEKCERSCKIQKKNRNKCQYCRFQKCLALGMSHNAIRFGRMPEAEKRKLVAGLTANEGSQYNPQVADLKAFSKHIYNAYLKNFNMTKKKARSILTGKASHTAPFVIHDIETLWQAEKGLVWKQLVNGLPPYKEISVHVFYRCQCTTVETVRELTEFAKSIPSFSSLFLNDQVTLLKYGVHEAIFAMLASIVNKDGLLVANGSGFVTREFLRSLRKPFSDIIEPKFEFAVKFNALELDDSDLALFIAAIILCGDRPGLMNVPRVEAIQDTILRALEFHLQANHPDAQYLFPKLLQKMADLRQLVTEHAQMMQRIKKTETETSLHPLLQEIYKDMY
Description: Binding affinity to PPAR-delta (unknown origin) at 0.5 uM in presence of fluormone pan-PPAR green tracer by TR-FRET assay.

The subject of series [17] is Mus musculus. The experiment in a line: Effect on cdk5 protein expression in male db/db mouse white adipose tissue at 2.5 to 10 mg/kg/day, ip administered for 4 weeks by Western blotting analysis. The settings on record: dose 2.5-10 mg/kg/day. The class given is functional, organism-based.
Series [18] in a line: Toxicity in male db/db mouse model assessed as body weight gain at 2.5 to 10 mg/kg/day, ip administered for 4 weeks. The class given is organism-based. The settings on record: in vivo, 672 h, dose 2.5-10 mg/kg/day.

Active and inactive are the calls of the source. No cut-off for these calls is given here.

Turning to `Cc1ccc(S(=O)(=O)Oc2ccc(S3(=O)=N[Se]c4cc(OS(=O)(=O)c5ccc(C)cc5)ccc43)cc2)cc1` (centres undefined), the outcome (in [1]; in series [16]; in the series with Mus musculus [17]) was inactive. The Activity entry in [2] was “Non-toxic”; in [7], “Non-toxic”; in the series with Mus musculus [11] it was “Dose-dependent-effect”; in [12] it was “Active; Mass Change Of 633.50 Da For Ppargamma-Lbd Observed”; in [13] it was “Non-toxic”; in series [14], “Non-toxic”. In addition, the Activity result in series [18] is “Non-toxic”. The outcome in the series on Mus musculus [3], with Mus musculus [4], in the series with Mus musculus [5], in the series on Mus musculus [6], with Mus musculus [8] and with Mus musculus [9] was Active. The result with Mus musculus [10] and with Mus musculus [15] was Active. Moreover, the inhibition entry in the series on 3T3-L1 is “Active”.
